This is an account of results in patent US8673983B2, “Melanins synthesized chemically or via enzyme catalysis” (priority 2007, dated 2014).

Values after ≈ are worked out from the molar mass of the structure shown. A value given as a limit tells only on which side of the number the result lay.

Data set [1] relates to PPO enzyme (E.C. 1.10.3.1) from banana (Musa sapientum) skin. The data set can be described thus: test of potential melanogenic substrates of banana PPO (pigment formation vs blank). As to conditions: pH 7. The format is biochemical.
The next data set relates to HSV-2. The data set can be described thus: microbe, parasite or virus in culture. In kind it is cell-based. To be noted: Human alphaherpesvirus 2, HFF, read-out: ACV EC50.
Another data set in a line: in vitro. To be noted: human.
The test system of another data set is HSV-1. The experiment in a line: microbe, parasite or virus in culture. As to conditions: Human alphaherpesvirus 1, HFF, read-out: ACV EC50. In kind it is cell-based.
A short description of a further data set: physchem. As to conditions: 30 °C, pH 7, aqueous buffer, thermodynamic from solid.
Data set [2] relates to cultured human foreskin fibroblasts.

Turning to 5,6,7 trihydroxyflavanone [Baicalein], the “PPO Substrate” value in data set [1] was “Y”.

In the case of `Nc1nc2c(ncn2COCCO)c(=O)[nH]1` [ACV, Acyclovir], the EC50 in the data set on HSV-2 is 1.4 µg/mL (≈ 0.00622 mM); in the data set with HSV-1 it was 1.1 µg/mL (≈ 0.00488 mM). In the data set “in vitro”, the CC50 was greater than 100 µg/mL.

As to `O=C1c2ccccc2C(=O)c2c1ccc(O)c2O` [Alizarin, 1,2-dihydroxy-anthraquinone], the solubility in “physchem” is less than 2000 µg/mL. Moreover, in data set [1], the “PPO Substrate” value was “Y”.

Molecule `O=C(O)C=Cc1ccc(O)c(O)c1` [Caffeic acid, 3,4-dihydroxycinnamic acid] showed a solubility in the data set “physchem” greater than 2000 µg/mL.

In “physchem”, `O=C(O)Cc1ccc(O)c(O)c1` [DOPAC, 3,4-dihydroxyphenylacetic acid] had a solubility greater than 2000 µg/mL.

Turning to `O=c1ccc2cc(O)c(O)cc2o1` [Esculetin, 6,7 Dihydroxvcoumarin], the solubility in the data set “physchem” is less than 2000 µg/mL. Moreover, the “PPO Substrate” value in data set [1] is recorded as “Y”.

Take `Nc1nc(O)c2ncn(COC(CO)CO)c2n1` [GCV, ganciclovir]: in “in vitro”, the CC50 is greater than 100 µg/mL.

The molecule `O=C(O)c1cc(O)c(O)c(O)c1` [Gallic acid, 3,4,5-trihydroxybenzoic acid] displayed a solubility in the data set “physchem” of less than 2000 µg/mL.

The molecule `O=C(O)c1ccc(O)c(O)c1` [Protocatechuric acid, 3,4-dihydroxybenzoic acid] displayed a solubility in the data set “physchem” greater than 2000 µg/mL. For the same molecule, the “PPO Substrate” value in data set [1] is on record as “Y”.

Regarding `Oc1cccc(O)c1O` [Pyrogallol, 1,2,3-trihydroxvbenzene], the solubility in “physchem” is less than 2000 µg/mL.

For the molecule `O=c1c(O)c(-c2ccc(O)c(O)c2)oc2cc(O)cc(O)c12` [Quercetin, 2-(3,4-dihydroxyphenyl)-3,5,7-trihydroxy-4H-1-benzopyran-4-one], the solubility in “physchem” was less than 2000 µg/mL.

As to `NCCc1c[nH]c2ccc(O)cc12` [Serotonin, 5-hydroxytryptamine], the “PPO Substrate” value in data set [1] is on record as “Y”.

On to Nordihydroguaiuretic acid, for which the Toxicity result in data set [2] is reported as “N”.

In general, EC50 refers to the concentration needed to bring the measured effect to its halfway point. What is called solubility is the dissolved amount per volume that the medium holds. Read a low solubility as a poorly soluble substance.
